Source: paper PMC4965473 (Frontiers in Physiology, 2016)
Counter-ions that a name gives are not always drawn.

Columns and labels:
[1] = tested on: M2 transmembrane domain (M2TMD); conditions: cited from earlier work
wt M2TMD21−49 = tested on: wt M2TMD21−49; design: species or system influenza A

In the case of `NC12CC3CC(CC(C3)C1)C2` [amantadine, amantadine hydrochloride], the “binding affinity of amantadine versus pH” value [1] is given as “Increased binding affinity of amantadine at neutral or basic pH, compared to acidic pH”, the “effect of amantadine on M2TMD tetramer” value [1] is given as “stabilizing effect of amantadine on M2TMD tetramer” and the “effect of longer incubation with amantadine on DEER data” value (wt M2TMD21−49) is given as “did not produce any additional effect on the DEER data”. For the same compound, the “effect of amantadine on DEER distances” value (wt M2TMD21−49; pH 5.5) was “do not change upon the addition of 2 mM amantadine” and the “effect of amantadine on DEER signal / modulation depth” value (wt M2TMD21−49; pH 5.5) was “almost negligible”.
